Some test systems named below: A549 NSCLC; ACHN renal; BT-549 breast; COLO 205 colon; DU-145 prostate; HCT-15 colon; HOP-62 NSCLC; HOP-92 NSCLC; HS 578T breast; LOX IMVI melanoma; M14 melanoma; MDA-N; MOLT-4 leukemia; SF-295 CNS; TK-10 renal; UACC-257 melanoma.
Experiment in all cases: DTP human tumour cell line panel, 48 h

Results on eight compounds are retold here after PubChem BioAssay (NCI).

As usually defined, the TGI is the concentration giving total growth inhibition. The GI50 is the concentration at which growth is held to half of that of the control.

Structures are written as SMILES.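 48-hour exposure; five concentrations; linearly interpolated endpoints. Abbreviation: GI50, concentration required for 50% inhibition of growth. TGI: concentration producing complete growth inhibition.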 Where only a bound is given, the exact number is not on record here.

With `Cc1ccc(S(=O)(=O)N2C[C@@H]3CC[C@]4(CO[Si](C)(C)C(C)(C)C)N[C@@H](c5ccccc5)[C@H]2[C@H]34)cc1`, the TGI is > 100 µM in the assay on A549 NSCLC; > 100 µM in the assay with ACHN renal; 87.8 µM in the assay with BT-549 breast; 58.8 µM in the assay on COLO 205 colon; > 100 µM in the assay on DU-145 prostate; > 100 µM with HCT-15 colon. The TGI with HOP-62 NSCLC is > 100 µM; in the assay with HOP-92 NSCLC, 28.7 µM; in the assay on HS 578T breast, > 100 µM; in the assay on LOX IMVI melanoma it was > 100 µM; in the assay on M14 melanoma, > 100 µM; in the assay on MDA-N it was > 100 µM. Moreover, the TGI was > 100 µM in the assay on MOLT-4 leukemia, > 100 µM in the assay with SF-295 CNS, > 100 µM with TK-10 renal and 93.8 µM in the assay on UACC-257 melanoma.

For the compound `Clc1sc(Cl)c2c1[C@@H](Cl)C[C@@H]2Cl`, the TGI in the assay with A549 NSCLC, with ACHN renal, in the assay on BT-549 breast, in the assay with COLO 205 colon, in the assay on DU-145 prostate and in the assay on HCT-15 colon was > 100 µM throughout. The TGI in the assay with HOP-62 NSCLC, with HOP-92 NSCLC, in the assay with HS 578T breast, in the assay with LOX IMVI melanoma, in the assay on M14 melanoma and in the assay on MDA-N was > 100 µM throughout. Further, the TGI in the assay on MOLT-4 leukemia, in the assay with SF-295 CNS, with TK-10 renal and with UACC-257 melanoma was > 100 µM in each case.

`NNC(=O)Nc1nc2ccc(NN)cc2[nH]1`: the TGI with A549 NSCLC was > 100 µM; with ACHN renal it was > 100 µM; with BT-549 breast it was 84.1 µM; with COLO 205 colon it was 37.3 µM; in the assay on DU-145 prostate, > 100 µM; in the assay with HCT-15 colon, > 100 µM. The TGI is > 100 µM in the assay with HOP-62 NSCLC; 57.3 µM with HOP-92 NSCLC; > 100 µM with HS 578T breast; > 100 µM in the assay on LOX IMVI melanoma; 84.4 µM in the assay on M14 melanoma; > 100 µM in the assay with MDA-N. Moreover, the concentration for total growth inhibition (TGI) is 32.3 µM in the assay with MOLT-4 leukemia, > 100 µM with SF-295 CNS, 82.6 µM in the assay with TK-10 renal and 88.1 µM in the assay with UACC-257 melanoma.

As for `N#CC1(C#N)C(C#N)(C#N)C1(C#N)C(N)=O`, the TGI in the assay on A549 NSCLC, in the assay on ACHN renal, in the assay on BT-549 breast, in the assay with COLO 205 colon, in the assay with DU-145 prostate and in the assay with HCT-15 colon was > 100 µM throughout. The TGI in the assay with HOP-62 NSCLC, in the assay with HOP-92 NSCLC, in the assay with HS 578T breast, with LOX IMVI melanoma, with M14 melanoma and in the assay with MDA-N was > 100 µM in each case. For the same compound, the TGI in the assay with MOLT-4 leukemia, in the assay with SF-295 CNS, in the assay with TK-10 renal and in the assay on UACC-257 melanoma was > 100 µM each time.

Consider `CCn1c(=O)c2nc(SC)sc2n(-c2ccc(C)cc2)c1=O`, for which the TGI with A549 NSCLC, in the assay on ACHN renal, in the assay with BT-549 breast, in the assay with COLO 205 colon, in the assay on DU-145 prostate and in the assay on HCT-15 colon was > 100 µM each time. The concentration for total growth inhibition (TGI) in the assay on HOP-62 NSCLC is > 100 µM; in the assay on HOP-92 NSCLC, > 100 µM; in the assay with HS 578T breast, > 87.4 µM; with LOX IMVI melanoma it was > 100 µM; in the assay with M14 melanoma it was > 45.2 µM; in the assay on MDA-N, > 100 µM. Also, the concentration for total growth inhibition (TGI) with MOLT-4 leukemia, in the assay with SF-295 CNS, in the assay with TK-10 renal and in the assay with UACC-257 melanoma was > 100 µM each time. Moreover, in the assay on BT-549 breast, the GI50 is 33 µM.

Consider `Cc1cccc2c(N)c3cccc(C(=O)NCC[N+](C)(C)Cc4ccc([N+](=O)[O-])s4)c3nc12`, for which the TGI in the assay with A549 NSCLC is 17.5 µM; in the assay with ACHN renal, > 49.2 µM; in the assay with BT-549 breast, > 70.5 µM; with COLO 205 colon it was 21.4 µM; in the assay on DU-145 prostate, 46.8 µM; with HCT-15 colon, > 100 µM. For the same compound, the TGI with HOP-62 NSCLC stood at 32.5 µM; in the assay on HOP-92 NSCLC, 68.8 µM; in the assay on HS 578T breast it was 34.6 µM; in the assay on LOX IMVI melanoma, 18.6 µM; in the assay on M14 melanoma it was 39.7 µM; in the assay with MDA-N, 49.9 µM. For the same compound, the TGI in the assay on MOLT-4 leukemia is 9.36 µM; in the assay on SF-295 CNS, > 100 µM; in the assay with TK-10 renal, > 100 µM; with UACC-257 melanoma, > 78 µM.

Turning to `CCCC[C@@H](C)/C=C1\CN2CCC[C@H]2[C@@](C)(OCc2ccccc2)[C@@H]1O`, the TGI is > 50 µM in the assay with A549 NSCLC; > 50 µM in the assay on ACHN renal; > 50 µM in the assay on BT-549 breast; > 50 µM in the assay with COLO 205 colon; > 19.3 µM in the assay with DU-145 prostate; > 50 µM in the assay on HCT-15 colon. Besides, the TGI in the assay on HOP-62 NSCLC was 18.4 µM; with HOP-92 NSCLC, > 50 µM; in the assay on HS 578T breast it was > 50 µM; with LOX IMVI melanoma, > 50 µM; in the assay with M14 melanoma, > 50 µM; with MDA-N it was > 50 µM. Besides, the TGI with MOLT-4 leukemia was > 50 µM; in the assay with SF-295 CNS, > 50 µM; in the assay on TK-10 renal it was > 50 µM; in the assay with UACC-257 melanoma, > 46.1 µM.

Regarding `C#CC(O)(c1nc2ccccc2s1)c1nc2ccccc2s1`, the TGI with A549 NSCLC is > 100 µM; in the assay with ACHN renal it was 83.2 µM; with BT-549 breast, 57.3 µM; in the assay with COLO 205 colon, 40 µM; in the assay with DU-145 prostate, > 100 µM; with HCT-15 colon, 60.6 µM. The total growth inhibition concentration (TGI) with HOP-62 NSCLC is 85.1 µM; in the assay with HOP-92 NSCLC, 38.2 µM; in the assay with HS 578T breast, > 100 µM; with LOX IMVI melanoma it was 35.7 µM; with M14 melanoma, 32.8 µM; in the assay on MDA-N, 57.4 µM. In addition, the TGI is > 100 µM with MOLT-4 leukemia, 76.8 µM in the assay with SF-295 CNS, > 100 µM in the assay with TK-10 renal and 88.5 µM in the assay on UACC-257 melanoma.
